Experimental data: ChEMBL document CHEMBL1136344, “Green tea catechins as a BACE1 (beta-secretase) inhibitor” (Bioorg Med Chem Lett, 2003)

Target: T1, Beta-secretase 1 (Homo sapiens, UniProt P56817)
Test: Inhibition of human Beta-secretase 1

T1 sequence (P56817 whole entry): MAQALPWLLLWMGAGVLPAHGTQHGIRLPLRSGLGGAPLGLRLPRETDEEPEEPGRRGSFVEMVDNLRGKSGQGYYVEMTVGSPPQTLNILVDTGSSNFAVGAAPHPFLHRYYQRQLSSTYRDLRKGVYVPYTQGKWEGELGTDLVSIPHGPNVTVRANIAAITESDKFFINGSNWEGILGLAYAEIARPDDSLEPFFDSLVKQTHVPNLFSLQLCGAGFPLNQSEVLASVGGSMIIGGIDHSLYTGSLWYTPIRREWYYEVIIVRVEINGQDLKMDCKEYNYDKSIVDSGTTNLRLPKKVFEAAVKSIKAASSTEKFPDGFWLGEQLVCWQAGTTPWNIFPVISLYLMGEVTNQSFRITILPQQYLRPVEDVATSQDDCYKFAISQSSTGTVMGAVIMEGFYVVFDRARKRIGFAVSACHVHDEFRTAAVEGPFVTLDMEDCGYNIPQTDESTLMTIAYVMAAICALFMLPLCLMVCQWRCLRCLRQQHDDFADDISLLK

Compound | IC50
O=C(O[C@H]1Cc2c(O)cc(O)cc2O[C@H]1c1ccc(O)c(O)c1)c1cc(O)c(O)c(O)c1 | 4.5 µM
O=C(OC[C@@H]1O[C@H](OC(=O)c2cc(O)c(O)c(O)c2)[C@@H](OC(=O)c2cc(O)c(O)c(O)c2)[C@H](OC(=O)c2cc(O)c(O)c(O)c2)[C@H]1OC(=O)c1cc(O)c(O)c(O)c1)c1cc(O)c(O)c(O)c1 | > 160 µM
Oc1cc(O)c2c(c1)O[C@@H](c1cc(O)c(O)c(O)c1)[C@@H](O)C2 | 2.4 µM
O=C(O[C@@H]1O[C@@H]2COC(=O)c3cc(O)c(O)c(O)c3-c3c(cc(O)c(O)c3O)C(=O)OO[C@H]([C@H]1O)[C@@H]2O)c1cc(O)c(O)c(O)c1 | > 160 µM
O=C(O[C@@H]1Cc2c(O)cc(O)cc2O[C@H]1c1ccc(O)c(O)c1)c1cc(O)c(O)c(O)c1 [(-)-CATECHINGALLATE] | 6 µM
Oc1cc(O)c2c(c1)O[C@H](c1cc(O)c(O)c(O)c1)[C@@H](O)C2 [GALLOCATECHIN] | 2.5 µM

Target: T1, Beta-secretase 1
Test: Inhibitory activity against recombinant human Beta-secretase 1

Compound | Ki
O=C(O[C@H]1Cc2c(O)cc(O)cc2O[C@H]1c1ccc(O)c(O)c1)c1cc(O)c(O)c(O)c1 | 5.3 µM
